Assays:
Ba/F3-Δ19del/T790M/C797S = Ba/F3-Δ19del/T790M/C797S (Homo sapiens, UniProt P00533, T790M/C797S, cells depend on it, form not given); assay: Ba/F3-Δ19del/T790M/C797S cell proliferation assay (CellTiter Glo, 72 h); assay type: cell-based; conditions: CTG, numeric values, read-out: BaF3 Δ19del/T790M/C797S IC50
Summary of the method: (§1)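 Cells seeded at 2000/well and exposed 72 h to compound at 1000 to 0.2 nM (0.1% DMSO). Viability read by CellTiter-Glo luminescence; IC50 from four-parameter nonlinear regression of signal vs. log concentration.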

[1] = test system: A431 EGFR wild-type cell line; assay: A431 EGFR wild-type cell proliferation assay (CellTiter Glo, 72 h); assay type: cell-based; conditions: Homo sapiens, A-431, CTG, read-out: A431 EGFR WT IC50
Summary of the method: as §1

[2] = Liver microsomal clearance test, monkey; assay type: in vitro ADME; conditions: Monkey liver microsomes, 0.5 mg/mL, NADPH
Protocol: (§2) Test 3 Liver Microsomal Clearance Test
(§3) 1. Prepare 0.5 mg/mL liver microsome diluent containing K-butter and MgCl2:
(§4) 2.1 Take 356 μL of the liver microsome diluent prepared above and add it to the preset wells of the incubation plate, the number of multiple wells n=1, mark it as the incubation plate.
(§5) 2.2 Take 4 μL of the positive control compound Verapamil (50 μM) and the working solution of the test compound (200 μM) into the above incubation plate containing 356 μL of liver microsome diluent, and mix well (The dilution solvent from the stock solution to the working solution is a mixed solvent of acetonitrile: methanol: water=1:1:2, and the final concentration of DMSO is ≤0.5%),
(§6) 2.3 Place the incubation plate in a 37° C. thermostatic oscillator (at shaking speed of 100 rpm) for pre-incubation with 10 min.
(§7) 2.4 Add 40 μL of 10 mM NADPH (add 40 μL of K-buffer to the wells without NADPH) to each reaction well to start the reaction and start timing.
(§8) 3. Sample collection and treatment:
(§9) 3.1 After adding NADPH to start the reaction, immediately take out 50 μL of the sample and add it to the precipitation plate pre-added with 400 μL of stop solution, and shake on an oscillator at 600 rpm for 5 min at room temperature as a 0 min sample.
(§10) 3.2 At the predetermined time points of 5 min, 15 min and 45 min, take out 50 μL of sample from the incubation plate and add it to the precipitation plate. The subsequent steps were the same as the treatment of 0 min sample. 3.3 After balancing, centrifuge above precipitation plate at 3200 rpm for 10 min at 4° C.
(§11) 3.4 Take 50 μL of the supernatant after centrifugation and add it to pre-added 20% acetonitrile water at appropriate proportion, shake on an oscillator at 600 rpm for 2 min at room temperature, mix well, and put it into the LC-MS/MS sampler for sample injection.
(§12) Analysis of Experimental Data
1. […]

[3] = Liver microsomal clearance test, rat; assay type: in vitro ADME; conditions: Rat liver microsomes, 0.5 mg/mL, NADPH
Protocol: as §2, §3, §4, §5, §6, §7, §8, §9, §10, §11, §12
1. […]

hERG protein = target: T1, hERG protein (Homo sapiens, UniProt Q12809); assay: hERG IC50 test (tracer/membranes fluorescence polarization); assay type: binding; conditions: hERG membranes and tracer, read-out: IC50 results of hERG protein to compound
T1 construct: purchased
Protocol: 1. Thaw hERG kits (Tracer, E-4031 and Membranes) at room temperature;
2. Add 10 μL of positive compound E-4031 and 10 μL of test compound (10 mM) to 384 well plate (Corning, Art. No. 3658);
3. E-4031 is sequentially 5-fold diluted by pure water (10 concentration points in total), and the test compound is sequentially 5-fold diluted by DMSO (10 concentration points in total).
4. Take 1 μL of all gradient concentrations and add them in parallel to the wells containing 24 μL Assay buffer, and dilute 25 times (take 3 μL of the maximum concentration of E-4031 and add it to 72 μL Assay buffer).
5. Add 10 μL Membranes to another black 384-well plate (Coming, Art.4511).
6. Take 5 μL of 25-fold diluted working solution of positive and test compounds, and add it to above-mentioned plate with 10 μL Membranes, 2 copies at each concentration.
7. Negative control: Add 5 μL Assay buffer to the well with 10 μL Membranes, 8 copies in parallel;
8. Positive control: Add 5 μL E-4031 (120 μM) to the well with 10 μL Membranes, 8 copies in parallel;
9. […]
10. Before measuring the fluorescence polarization, cover the analysis plate to protect the reagents from light and evaporation, and incubate at room temperature (20-25° C.) for 2 hours.
11. Read fluorescence polarization in PerkinElmer EnVision® Multilabel after incubation; […]

T1 sequence (Q12809 whole entry): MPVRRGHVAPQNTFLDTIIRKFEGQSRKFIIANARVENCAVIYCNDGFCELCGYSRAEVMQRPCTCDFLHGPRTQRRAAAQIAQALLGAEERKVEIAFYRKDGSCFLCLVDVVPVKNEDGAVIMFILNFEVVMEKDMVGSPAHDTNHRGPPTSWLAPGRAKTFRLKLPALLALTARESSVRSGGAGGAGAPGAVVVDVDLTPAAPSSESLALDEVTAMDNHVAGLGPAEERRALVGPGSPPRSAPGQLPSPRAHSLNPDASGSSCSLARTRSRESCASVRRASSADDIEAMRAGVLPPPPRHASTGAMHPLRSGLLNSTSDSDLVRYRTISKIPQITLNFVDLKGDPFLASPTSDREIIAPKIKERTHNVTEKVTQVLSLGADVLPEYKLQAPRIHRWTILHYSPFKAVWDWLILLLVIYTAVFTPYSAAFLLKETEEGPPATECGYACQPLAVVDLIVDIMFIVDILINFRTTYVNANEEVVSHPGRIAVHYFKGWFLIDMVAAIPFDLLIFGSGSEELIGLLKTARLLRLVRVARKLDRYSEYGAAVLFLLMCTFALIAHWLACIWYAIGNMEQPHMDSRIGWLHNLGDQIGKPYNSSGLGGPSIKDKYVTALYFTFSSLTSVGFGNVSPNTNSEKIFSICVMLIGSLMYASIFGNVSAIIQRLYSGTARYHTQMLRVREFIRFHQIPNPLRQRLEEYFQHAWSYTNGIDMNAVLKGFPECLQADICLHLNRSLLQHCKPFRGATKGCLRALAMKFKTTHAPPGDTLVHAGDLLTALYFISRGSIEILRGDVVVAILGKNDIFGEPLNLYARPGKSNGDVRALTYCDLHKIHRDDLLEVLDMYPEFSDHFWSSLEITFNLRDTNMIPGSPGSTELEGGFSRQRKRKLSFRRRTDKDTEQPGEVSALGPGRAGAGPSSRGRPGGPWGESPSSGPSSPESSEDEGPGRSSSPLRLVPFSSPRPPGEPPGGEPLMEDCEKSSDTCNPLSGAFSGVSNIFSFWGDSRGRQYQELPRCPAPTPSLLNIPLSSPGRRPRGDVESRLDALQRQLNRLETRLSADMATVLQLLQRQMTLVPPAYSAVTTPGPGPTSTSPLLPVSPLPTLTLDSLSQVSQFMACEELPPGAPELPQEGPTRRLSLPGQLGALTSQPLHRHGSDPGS
Chain of Ba/F3-Δ19del/T790M/C797S (P00533 with tags, fused parts or gaps DEL746-750/T790M/C797S, form open): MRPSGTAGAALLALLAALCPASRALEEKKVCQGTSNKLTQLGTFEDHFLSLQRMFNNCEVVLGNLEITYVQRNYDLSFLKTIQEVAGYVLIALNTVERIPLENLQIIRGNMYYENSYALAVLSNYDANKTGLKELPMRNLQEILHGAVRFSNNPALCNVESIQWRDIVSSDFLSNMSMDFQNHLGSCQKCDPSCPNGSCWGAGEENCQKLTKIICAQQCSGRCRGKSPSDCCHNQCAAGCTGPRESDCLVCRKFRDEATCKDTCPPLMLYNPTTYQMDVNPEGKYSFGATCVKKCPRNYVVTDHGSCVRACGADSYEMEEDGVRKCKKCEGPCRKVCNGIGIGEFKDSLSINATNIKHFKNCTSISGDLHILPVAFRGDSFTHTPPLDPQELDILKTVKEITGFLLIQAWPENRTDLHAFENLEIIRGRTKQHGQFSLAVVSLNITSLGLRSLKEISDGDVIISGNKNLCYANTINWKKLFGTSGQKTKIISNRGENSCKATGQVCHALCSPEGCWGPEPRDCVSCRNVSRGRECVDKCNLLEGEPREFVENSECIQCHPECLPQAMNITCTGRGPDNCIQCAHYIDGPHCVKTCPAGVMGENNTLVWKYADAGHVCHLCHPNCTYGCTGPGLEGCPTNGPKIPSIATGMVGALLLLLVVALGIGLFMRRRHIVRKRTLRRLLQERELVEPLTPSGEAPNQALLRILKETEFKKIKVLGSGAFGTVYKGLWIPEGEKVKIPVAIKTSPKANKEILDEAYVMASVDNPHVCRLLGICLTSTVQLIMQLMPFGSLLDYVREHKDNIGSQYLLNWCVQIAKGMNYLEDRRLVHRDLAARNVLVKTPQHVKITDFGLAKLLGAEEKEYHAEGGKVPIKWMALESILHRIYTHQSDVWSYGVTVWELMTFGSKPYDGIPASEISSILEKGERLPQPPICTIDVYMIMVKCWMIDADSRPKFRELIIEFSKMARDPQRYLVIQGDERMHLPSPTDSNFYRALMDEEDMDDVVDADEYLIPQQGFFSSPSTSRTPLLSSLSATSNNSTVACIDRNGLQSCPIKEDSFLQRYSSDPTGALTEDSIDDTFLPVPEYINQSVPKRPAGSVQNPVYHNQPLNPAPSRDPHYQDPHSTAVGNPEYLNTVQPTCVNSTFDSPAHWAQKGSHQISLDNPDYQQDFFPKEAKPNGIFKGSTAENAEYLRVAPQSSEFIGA

## COc1cc(N2CCC(N3CCN(C)CC3)CC2)c(-c2cnn(C)c2)cc1Nc1ncc(Cl)c(Nc2ccc3nccnc3c2P(C)(C)=O)n1 [Compound 1, (6-((5-Chloro-2-((2-methoxy-5-(1-methyl-1hydro-pyrazol-4-yl)-4-(4-(4-methylpiperazine-1-yl)piperidin-1-yl)phenyl)amino)pyrimidin-4-yl)amino)quinoxalin-5-yl)dimethylphosphine oxide]
Ba/F3-Δ19del/T790M/C797S
  GI50: 2.1 nM
[1]
  IC50: 112 nM
[2]
  Instrinsic clearance of liver microsomal protein, CLint: 38.8 μL/min/mg proteins
[3]
  Instrinsic clearance of liver microsomal protein, CLint: 4 μL/min/mg proteins
hERG protein
  IC50: > 30000 nM

From patent US20220259235A1, “EGFR Inhibitor, Composition, and Preparation Method Therefor” (BETTA PHARMACEUTICALS CO., LTD, priority 2019, published 2022)
